pIC50: −log10 of the molar value.
Target: CREBBP (Homo sapiens (Human), UniProt Q92793)
Experiment: In vitro enzyme inhibition assay - CREBBP inhibition (AlphaScreen, biotinylated H4-tetraacetyl peptide)
Format: binding
Settings: Table 28; AlphaScreen, H4-tetraacetyl peptide
Method in brief: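 His-tagged CREBBP expressed in E. coli (50 nM final) incubated with biotinylated H4K5/8/12/16(Ac) peptide (20 nM final) in HEPES pH 7.3 buffer, 0.4% DMSO, 20 min at room temperature.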

Chain of CREBBP (Q92793 1081-1197): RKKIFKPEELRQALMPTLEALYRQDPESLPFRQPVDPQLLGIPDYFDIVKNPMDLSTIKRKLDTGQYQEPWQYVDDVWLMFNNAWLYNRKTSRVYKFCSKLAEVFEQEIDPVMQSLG

Structure (SMILES) | pIC50
CCS(=O)(=O)Nc1cc(-c2ccc(=O)n(C)c2)nc(OC(C)C)n1 [Example 236, Ethanesulfonic acid [2-isopropoxy-6-(1-methyl-6-oxo-1,6-dihydro-pyridin-3-yl)-pyrimidin-4-yl]-amide] | > 6.30
CCCCS(=O)(=O)Nc1cc(-c2cc(C)c(=O)n(C)c2)nc(OC2CCCCC2)n1 [Example 249, Butane-1-sulfonic acid [2-cyclohexyloxy-6-(1,5-dimethyl-6-oxo-1,6-dihydro-pyridin-3-yl)-pyrimidin-4-yl]-amide] | > 6.30
Cc1cc(-c2cc(NS(=O)(=O)C(C)C)nc(Oc3cccc4ccn(C)c34)n2)cn(C)c1=O [Example 57, Propane-2-sulfonic acid [6-(1,5-dimethyl-6-oxo-1,6-dihydro-pyridin-3-yl)-2-(1-methyl-1H-indol-7-yloxy)-pyrimidin-4-yl]-amide] | > 6.30
CCCCC(=O)Nc1cc(-c2cc(C)c(=O)n(C)c2)nc(Oc2ccc(F)cc2F)n1 [Example 79, N-(2-(2,4-difluorophenoxy)-6-(1,5-dimethyl-6-oxo-1,6-dihydropyridin-3-yl)pyrimidin-4-yl)pentanamide] | > 6.30
Cn1cc(-c2cc3nc(n2)Oc2cccc(c2)OCCC=CCCS(=O)(=O)N3)ccc1=O [Example 358, 5-(11,11-dioxido-2,4-dioxa-11-thia-12-aza-1(2,4)-pyrimidina-3(1,3)-benzenacyclododecaphan-7-en-1^6-yl)-1-methylpyridin-2(1H)-one] | > 6.30
CCS(=O)(=O)Nc1cc(-c2cc(C)c(=O)n(C)c2)nc(Oc2c(C)cc(Cl)cc2Cl)n1 [Example 26, Ethanesulfonic acid [2-(2,4-dichloro-6-methyl-phenoxy)-6-(1,5-dimethyl-6-oxo-1,6-dihydro-pyridin-3-yl)-pyrimidin-4-yl]-amide] | > 6.30
CCCCS(=O)(=O)Nc1nc(Oc2c(F)cccc2Cl)nc(-c2cc(C)c(=O)n(C)c2)n1 [Example 190, Butane-1-sulfonic acid [4-(2-chloro-6-fluoro-phenoxy)-6-(1,5-dimethyl-6-oxo-1,6-dihydro-pyridin-3-yl)-[1,3,5]triazin-2-yl]-amide] | > 6.30
CCCCS(=O)(=O)Nc1cc(-c2cc(C)c(=O)n(C)c2)nc(Oc2cc(OC)ccc2C#N)n1 [Example 35, Butane-1-sulfonic acid [2-(2-cyano-5-methoxy-phenoxy)-6-(1,5-dimethyl-6-oxo-1,6-dihydro-pyridin-3-yl)-pyrimidin-4-yl]-amide] | > 6.30
CCS(=O)(=O)Nc1nc(Oc2c(C)cccc2C)nc(-c2cc(C)c(=O)n(C)c2)n1 [Example 153, Ethanesulfonic acid [4-(1,5-dimethyl-6-oxo-1,6-dihydro-pyridin-3-yl)-6-(2,6-dimethyl-phenoxy)-[1,3,5]triazin-2-yl]-amide] | > 6.30
CCS(=O)(=O)Nc1nc(Oc2c(C)cccc2F)nc(-c2cc(C)c(=O)n(C)c2)c1C [Example 159, Ethane-2-sulfonic acid [6-(1,5-dimethyl-6-oxo-1,6-dihydro-pyridin-3-yl)-2-(2-fluoro-6-methyl-phenoxy)-5-methyl-pyrimidin-4-yl]-amide] | > 6.30

Further lines, results first:

pIC50 | Structure (SMILES)
> 6.30 | CCCCS(=O)(=O)Nc1cc(-c2ccc(=O)n(C)c2)nc(Oc2c(C)ccc(F)c2F)n1 [Example 347, N-(2-(2,3-difluoro-6-methylphenoxy)-6-(1-methyl-6-oxo-1,6-dihydropyridin-3-yl)pyrimidin-4-yl)butane-1-sulfonamide]
> 6.30 | Cc1ccc(Cl)c(Oc2nc(NS(=O)(=O)C(C)C)cc(-c3ccc(=O)n(C)c3)n2)c1F [Example 261, Propane-2-sulfonic acid [2-(6-chloro-2-fluoro-3-methyl-phenoxy)-6-(1-methyl-6-oxo-1,6-dihydro-pyridin-3-yl)-pyrimidin-4-yl]-amide]
> 6.30 | CCCS(=O)(=O)Nc1cc(-c2cc(C)c(=O)n(C)c2)nc(Oc2c(F)cccc2F)n1 [Example 20, Propane-1-sulfonic acid [2-(2,6-difluoro-phenoxy)-6-(1,5-dimethyl-6-oxo-1,6-dihydro-pyridin-3-yl)-pyrimidin-4-yl]-amide]
> 6.30 | Cc1cccc(F)c1Oc1nc(N[C@@H]2CCCc3ccccc32)cc(-c2ccc(=O)n(C)c2)n1 [Example 307, (R)-5-[2-(2-Fluoro-6-methyl-phenoxy)-6-(1,2,3,4-tetrahydro-naphthalen-1-ylamino)-pyrimidin-4-yl]-1-methyl-1H-pyridin-2-one]
> 6.30 | CCCS(=O)(=O)Nc1cc(-c2ccc(=O)n(C)c2)nc(Oc2c(C)cccc2C#N)n1 [Example 109, Propane-1-sulfonic acid [2-(2-cyano-6-methyl-phenoxy)-6-(1-methyl-6-oxo-1,6-dihydro-pyridin-3-yl)-pyrimidin-4-yl]-amide]
> 6.30 | Cc1cccc(CNc2cc(-c3ccc(=O)n(C)c3)nc(Oc3c(C)cccc3F)n2)n1 [Example 289, 5-(2-(2-fluoro-6-methylphenoxy)-6-(((6-methylpyridin-2-yl)methyl)amino)pyrimidin-4-yl)-1-methylpyridin-2(1H)-one]
5.30 to 6.30 | CCCS(=O)(=O)Nc1cc(-c2ccc(=O)n(C)c2)nc(-c2ccccc2OC)n1 [Example 196, Propane-1-sulfonic acid [2-(2-methoxy-phenyl)-6-(1-methyl-6-oxo-1,6-dihydro-pyridin-3-yl)-pyrimidin-4-yl]-amide]
> 6.30 | CCC[C@H](C)Nc1cc(-c2ccc(=O)n(C)c2)nc(Oc2c(C)cccc2C#N)n1 [Example 321, (S)-3-Methyl-2-[4-(1-methyl-butylamino)-6-(1-methyl-6-oxo-1,6-dihydro-pyridin-3-yl)-pyrimidin-2-yloxy]-benzonitrile]
> 6.30 | Cc1cccc(C#N)c1Oc1nc(NCc2ccccc2)cc(-c2ccc(=O)n(C)c2)n1 [Example 320, 2-[4-Benzylamino-6-(1-methyl-6-oxo-1,6-dihydro-pyridin-3-yl)-pyrimidin-2-yloxy]-3-methyl-benzonitrile]
> 6.30 | Cc1cccc(Cl)c1Oc1nc(NS(=O)(=O)CCC(C)C)cc(-c2ccc(=O)n(C)c2)n1 [Example 252, 3-Methyl-butane-1-sulfonic acid [2-(2-chloro-6-methyl-phenoxy)-6-(1-methyl-6-oxo-1,6-dihydro-pyridin-3-yl)-pyrimidin-4-yl]-amide]
> 6.30 | Cc1cccc(C#N)c1Oc1nc(NCc2cccnc2)cc(-c2ccc(=O)n(C)c2)n1 [Example 323, 3-Methyl-2-{4-(1-methyl-6-oxo-1,6-dihydro-pyridin-3-yl)-6-[(pyridin-3-ylmethyl)-amino]-pyrimidin-2-yloxy}-benzonitrile]
> 6.30 | CCC[C@@H](C)Nc1cc(-c2ccc(=O)n(C)c2)nc(Oc2c(C)cccc2F)n1 [Example 305]
> 6.30 | CCc1cccc(F)c1Oc1nc(NS(=O)(=O)[C@H](C)CC)cc(-c2ccc(=O)n(C)c2)n1 [Example 214, (2R)-Butane-2-sulfonic acid [2-(2-ethyl-6-fluoro-phenoxy)-6-(1-methyl-6-oxo-1,6-dihydro-pyridin-3-yl)-pyrimidin-4-yl]-amide]
> 6.30 | CC[C@H](C)S(=O)(=O)Nc1cc(-c2ccc(=O)n(C)c2)nc(Oc2c(C)cccc2F)n1 [Example 202, (S)-N-(2-(2-fluoro-6-methylphenoxy)-6-(1-methyl-6-oxo-1,6-dihydropyridin-3-yl)pyrimidin-4-yl)butane-2-sulfonamide]

— patent publication US10202360B2 (CELGENE QUANTICEL RESEARCH, INC., priority 2016, dated 2019)
